Legend:
[1] = biological target: T1, Mcl-1/Bim interaction, recombinant human Mcl-1 (171-327) (Homo sapiens, UniProt Q07820); test: Cell free Mcl-1: Bim Affinity Assay (Mcl-1 HTRF); format: binding
T1 construct: made in house
How it was run: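 Biotin-Bim(51-76) peptide, TR-FRET readout, overnight incubation; IC50 from duplicate competition curves, 4-parameter fit.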

[2] = tested on: OPM-2 human multiple myeloma cell line; test: Cell Viability Assay (OPM-2 10 FBS); format: cell-based; settings: OPM-2 cells, CellTiter-Glo
How it was run: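 Plated at 3000 cells/well in 10% FBS complete medium, the cells received a serial compound dilution series and incubated 16 h at 37 °C with 5% CO2. CellTiter-Glo was then added; IC50 values were fitted with a logistic 4-parameter model.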

[3] = TR-FRET, 0.1 nM Mcl-1 (171-327), 0.05 nM biotin-Bim (51-76)
[4] = Homo sapiens, OPM-2, 16 h, 16 h
[5] = cell free Mcl-1:Bim TR-FRET, recombinant human Mcl-1 (171-327)

T1 sequence (Q07820 171-327): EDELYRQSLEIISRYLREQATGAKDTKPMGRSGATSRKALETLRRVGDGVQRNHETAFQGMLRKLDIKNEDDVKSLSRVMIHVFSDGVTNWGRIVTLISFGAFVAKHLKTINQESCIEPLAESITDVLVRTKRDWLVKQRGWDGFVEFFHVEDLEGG

SMILES	IC50 [1, 3] [nM]	IC50 [2, 4] [nM]	IC50 ([2]; Homo sapiens, OPM-2, 16 h, 16 h incubation) [nM]	IC50 [1, 5] [nM]	IC50 ([2]; 16 h) [nM]
COCCO[C@H]1/C=C/C[C@@H]2CC[C@H]2S(=O)(=O)NC(=O)c2ccc3c(c2)N(C[C@@H]2CC[C@H]21)C[C@@]1(CCCc2cc(Cl)ccc21)CO3 [Example 93, (1S,3′R,6′R,7′S,8′E,11′S,14′R)-6-chloro-7′-(2-methoxyethoxy)-3,4-dihydro-2H,17′H-spiro[naphthalene-1,24′-[22]oxa[15]thia[1,16]diazapentacyclo[16.7.2.0^3,6.0^11,14.0^21,26]heptacosa[8,18,20,26]tetraen]-17′-one 15′,15′-dioxide]	0.494	402	–	–	–
C[C@H]1CCCS(=O)(=O)NC(=O)c2ccc3c(c2)N(C[C@@H]2CC[C@H]2[C@@H](O)C1)C[C@@]1(CCCc2cc(Cl)ccc21)CO3 (single isomer, unassigned) [Example 243]	10.9	–	–	–	12100
CC[C@@H](O[C@H]1/C=C/C[C@H](C)[C@@H](C)S(=O)(=O)NC(=O)c2ccc3c(c2)N(C[C@@H]2CC[C@H]21)C[C@@]1(CCCc2cc(Cl)ccc21)CO3)C(=O)N(C)C (single isomer, unassigned) [Example 431]	0.512	–	–	–	140
COCCN1[C@@H](C)C/C=C/[C@H](O)[C@@H]2CC[C@H]2CN2C[C@@]3(CCCc4cc(Cl)ccc43)COc3ccc(cc32)C(=O)NS1(=O)=O [Example 26, (1S,3′R,6′R,7′S,8′E,11′S)-6-chloro-7′-hydroxy-12′-(2-methoxyethyl)-11′-methyl-3,4-dihydro-2H,15′H-spiro[naphthalene-1,22′-[20]oxa[13]thia[1,12,14]triazatetracyclo[14.7.2.0^3,6.0^19,24]pentacosa[8,16,18,24]tetraen]-15′-one 13,13′-dioxide]	0.205	312	–	–	–
C[C@@H]1C/C=C\[C@H](O)[C@@H]2CC[C@H]2CN2C[C@@]3(CCCc4cc(Cl)ccc43)COc3ccc(cc32)C(=O)NS(=O)(=O)N1C[C@@H]1CCCO1 (single isomer, unassigned) [Example 52]	3.93	1810	–	–	–
COC(=O)[C@@H]1CC/C=C/[C@H](O)[C@@H]2CC[C@H]2CN2C[C@@]3(CCCc4cc(Cl)ccc43)COc3ccc(cc32)C(=O)NS1(=O)=O (single isomer, unassigned) [Example 160]	0.397	–	–	–	5300
C[C@@H]1[C@@H](C)C/C=C/[C@H](OCC(=O)N2CC(C)(O)C2)[C@@H]2CC[C@H]2CN2C[C@@]3(CCCc4cc(Cl)ccc43)COc3ccc(cc32)C(=O)NS1(=O)=O [Example 305, (1S,3′R,6′R,7′S,8′E,11′S,12′R)-6-chloro-7′-(2-(3-hydroxy-3-methyl-1-azetidinyl)-2-oxoethoxy)-11′,12′-dimethyl-3,4-dihydro-2H,15′H-spiro[naphthalene-1,22′-[20]oxa[13]thia[1,14]diazatetracyclo[14.7.2.0^3,6.0^19,24]pentacosa [8,16,18,24]tetraen]-15′-one 13′,13′-dioxide]	0.177	998	–	–	–
C[C@@H]1[C@@H](C)C/C=C/[C@H](OCC(=O)N2CC(F)(F)C2)[C@@H]2CC[C@H]2CN2C[C@@]3(CCCc4cc(Cl)ccc43)COc3ccc(cc32)C(=O)NS1(=O)=O [Example 308, (1S,3′R,6′R,7′S,8′E,11′S,12′R)-6-chloro-7′-(2-(3,3-difluoro-1-azetidinyl)-2-oxoethoxy)-11′,12′-dimethyl-3,4-dihydro-2H,15′H-spiro[naphthalene-1,22′-[20]oxa[13]thia[1,14]diazatetracyclo[14.7.2.0^3,6.0^19,24]pentacosa [8,16,18,24]tetraen]-15′-one 13′,13′-dioxide]	0.382	214	–	–	–
COC[C@@H](O)C[C@@H]1[C@@H](C)C/C=C/[C@H](OC)[C@@H]2CC[C@H]2CN2C[C@@]3(CCCc4cc(Cl)ccc43)COc3ccc(cc32)C(=O)NS1(=O)=O (single isomer, unassigned) [Example 679]	–	–	–	0.429	205
O=C1NS(=O)(=O)C(c2ccccc2)CC/C=C/[C@H](O)[C@@H]2CC[C@H]2CN2C[C@@]3(CCCc4cc(Cl)ccc43)COc3ccc1cc32 (single isomer, unassigned) [Example 675]	–	–	–	0.437	480
O=C1NS(=O)(=O)[C@H](c2ccccn2)CC/C=C/[C@H](O)[C@@H]2CC[C@H]2CN2C[C@@]3(CCCc4cc(Cl)ccc43)COc3ccc1cc32 (single isomer, unassigned) [Example 692]	–	–	–	0.6	1520
O=C1NS(=O)(=O)[C@H]2CCCC[C@@H]2C/C=C/[C@H](O)[C@@H]2CC[C@H]2CN2C[C@@]3(CCCc4cc(Cl)ccc43)COc3ccc1cc32 (single isomer, unassigned) [Example 332]	3.89	5580	–	–	–
COCC[C@H]1C[C@H](C)/C=C/[C@H](O)[C@@H]2CC[C@H]2CN2C[C@@]3(CCCc4cc(Cl)ccc43)COc3ccc(cc32)C(=O)NS1(=O)=O (single isomer, unassigned) [Example 479]	–	–	–	5.37	8120
COC[C@@H](O)C[C@@H]1[C@@H](C)C/C=C/[C@H](O)[C@@H]2CC[C@H]2CN2C[C@@]3(CCCc4cc(Cl)ccc43)COc3ccc(cc32)C(=O)NS1(=O)=O (single isomer, unassigned) [Example 673]	–	–	–	0.183	445

Now from value to molecule, other results behind:

IC50 [1, 3] [nM]	IC50 [2, 4] [nM]	IC50 ([2]; Homo sapiens, OPM-2, 16 h, 16 h incubation) [nM]	SMILES	IC50 [1, 5] [nM]	IC50 ([2]; 16 h) [nM]
–	968	–	O=C1NS(=O)(=O)N(Cc2ncco2)CC/C=C/[C@H](O)[C@@H]2CC[C@H]2CN2C[C@@]3(CCCc4cc(Cl)ccc43)COc3ccc1cc32 [Example 694, (1S,3′R,6′R,7′S,8′E)-6-chloro-7′-hydroxy-12′-(1,3-oxazol-2-ylmethyl)-3,4-dihydro-2H,15′H-spiro[naphthalene-1,22′-[20]oxa[13]thia[1,12,14]triazatetracyclo[14.7.2.0^3,6.0^19,24]pentacosa[8,16,18,24]tetraen]-15′-one 13′,13′-dioxide]	0.763	–
0.303	180	–	COCCOCCO[C@H]1/C=C/C[C@H](C)[C@@H](C)S(=O)(=O)NC(=O)c2ccc3c(c2)N(C[C@@H]2CC[C@H]21)C[C@@]1(CCCc2cc(Cl)ccc21)CO3 [Example 377, (1S,3′R,6′R,7′S,8′E,11′S,12′R)-6-chloro-7′-(2-(2-methoxyethoxy)ethoxy)-11′,12′-dimethyl-3,4-dihydro-2H,15′H-spiro[naphthalene-1,22′-[20]oxa[13]thia[1,14]diazatetracyclo[14.7.2.0^3,6.0^19,24]pentacosa[8,16,18,24]tetraen]-15′-one 13′,13′-dioxide]	–	–
–	73.5	–	C[C@@H]1[C@@H](C)C/C=C/[C@H](OCCCN2CCOCC2)[C@@H]2CC[C@H]2CN2C[C@@]3(CCCc4cc(Cl)ccc43)COc3ccc(cc32)C(=O)NS1(=O)=O [Example 721, (1S,3′R,6′R,7′S,8′E,11′S,12′R)-6-chloro-11′,12′-dimethyl-7′-(3-(4-morpholinyl)propoxy)-3,4-dihydro-2H,15′H-spiro[naphthalene-1,22′-[20]oxa[13]thia[1,14]diazatetracyclo[14.7.2.0^3,6.0^19,24]pentacosa [8,16,18,24]tetraen]-15′-one-13′, 13′-dioxide]	0.539	–
–	118	–	C[C@@H]1[C@@H](C)C/C=C/[C@H](OCCN2CCOC2=O)[C@@H]2CC[C@H]2CN2C[C@@]3(CCCc4cc(Cl)ccc43)COc3ccc(cc32)C(=O)NS1(=O)=O [Example 729, (1S,3′R,6′R,7′S,8′E,11′S,12′R)-6-chloro-11′,12′-dimethyl-7′-(2-(2-oxo-1,3-oxazolidin-3-yl)ethoxy)-3,4-dihydro-2H,15′H-spiro[naphthalene-1,22′-[20]oxa[13]thia[1,14]diazatetracyclo[14.7.2.0^3,6.0^19,24]pentacosa [8,16,18,24]tetraen]-15′-one-13′, 13′-dioxide]	0.311	–
–	147	–	C[C@@H]1[C@@H](C)C/C=C/[C@H](OCCN2CCOCC2=O)[C@@H]2CC[C@H]2CN2C[C@@]3(CCCc4cc(Cl)ccc43)COc3ccc(cc32)C(=O)NS1(=O)=O [Example 727, (1S,3′R,6′R,7′S,8′E,11′S,12′R)-6-chloro-11′,12′-dimethyl-7′-(2-(3-oxo-4-morpholinyl)ethoxy)-3,4-dihydro-2H,15′H-spiro[naphthalene-1,22′-[20]oxa[13]thia[1,14]diazatetracyclo[14.7.2.0^3,6.0^19,24]pentacosa [8,16,18,24]tetraen]-15′-one-13′, 13′-dioxide]	0.365	–
1.36	–	11300	O=C1NS(=O)(=O)C2COCC2CC=CC(O)C2CCC2CN2CC3(CCCc4cc(Cl)ccc43)COc3ccc1cc32 (single isomer, unassigned) [Example 1036]	–	–
0.188	160	–	C[C@@H]1CC/C=C/[C@H](O[C@@H]2CCOC2=O)[C@@H]2CC[C@H]2CN2C[C@@]3(CCCc4cc(Cl)ccc43)COc3ccc(cc32)C(=O)NS1(=O)=O (single isomer, unassigned) [Example 414]	–	–
–	3110	–	CC1CC=CC(O)C2CCC2CN2CC3(CCCc4cc(Cl)ccc43)COc3ccc(cc32)C(=O)NS(=O)(=O)C1CC(F)(F)F (single isomer, unassigned) [Example 663]	0.312	–
9.49	14600	–	C[C@@H]1[C@@H](C)C=C/C=C/[C@@H]2CC[C@H]2CN2C[C@@]3(CCCc4cc(Cl)ccc43)COc3ccc(cc32)C(=O)NS1(=O)=O (stereo in doubt) [Example 372, (1S,3′R,6′S,7′E,9′E,11′S,12′R)-6-chloro-11′,12′-dimethyl-3,4-dihydro-2H,15′H-spiro[naphthalene-1,22′-[20]oxa[13]thia[1,14]diazatetracyclo[14.7.2.0^3,6.0^19,24]pentacosa [7,9,16,18,24]pentaen]-15′-one 13′,13′-dioxide]	–	–
